Literature values as cited in US9206171B2, “6-{2 -[1-(6-methyl-3-pyridazinyl)-4-piperidinyl]ethoxy}-3-ethoxy-1,2-benzisoxazole bis-dihydrogenphosphate salt (1:2)” (Biota Scientific Management Pty Ltd, priority 2008, dated 2015).

Experiments:
[1] = facile endogenous cleavage of the ester moiety, regardless of excipient
[2] = patients using oral contraceptive formulations

Structure (SMILES)	aqueous solubility (in words)	bioavailability (in words) [1]	interaction with oral contraceptive formulations [2]
CCOC(=O)c1ccc(OCCC2CCN(c3ccc(C)nn3)CC2)cc1 [Pirodavir, 4-[2-[1-(6-methyl-3-pyridazinyl)-4-piperidinyl]-ethoxy]benzoate]	poor aqueous solubility	poor bioavailability	–
Cc1cc(CCCOc2c(C)cc(-c3noc(C(F)(F)F)n3)cc2C)on1 [Pleconaril]	–	–	interact adversely
